In patent US11447486B2, “2-amino-benzimidazole derivatives and their use as 5-lipoxygenase and/or prostaglandin E synthase inhibitors” (INSTITUT PASTEUR KOREA, priority 2014, dated 2022) one finds EC50 and IC50 data, which are given here for 19 compounds.

Where only a bound is given, the exact number is not on record here.

The subject of test [1] is Rat basophilic leukemia (RBL) cells. The test can be described thus: LTB4 secretion assay in RBL (rat basophilic leukemia cells). Type of test: cell-based. To be noted: Rattus norvegicus, RBL. In short, it runs like this: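 Cells seeded 2×10^4/well the day before, then pre-incubated 15 min at 37 °C in EMEM/0.5% FBS with compound (5 nM to 100 uM). Stimulation with 2.5 uM arachidonic acid plus 5 uM A23187 (final) for 10 min at 37 °C; LTB4 in supernatant quantified by EIA.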

The target in test [2] is T1, human 5-LOX (Homo sapiens, UniProt P09917).
T1 construct: purchased Cayman 60402; host or cells: insect cells (lysate)
T1 sequence (P09917 1-674): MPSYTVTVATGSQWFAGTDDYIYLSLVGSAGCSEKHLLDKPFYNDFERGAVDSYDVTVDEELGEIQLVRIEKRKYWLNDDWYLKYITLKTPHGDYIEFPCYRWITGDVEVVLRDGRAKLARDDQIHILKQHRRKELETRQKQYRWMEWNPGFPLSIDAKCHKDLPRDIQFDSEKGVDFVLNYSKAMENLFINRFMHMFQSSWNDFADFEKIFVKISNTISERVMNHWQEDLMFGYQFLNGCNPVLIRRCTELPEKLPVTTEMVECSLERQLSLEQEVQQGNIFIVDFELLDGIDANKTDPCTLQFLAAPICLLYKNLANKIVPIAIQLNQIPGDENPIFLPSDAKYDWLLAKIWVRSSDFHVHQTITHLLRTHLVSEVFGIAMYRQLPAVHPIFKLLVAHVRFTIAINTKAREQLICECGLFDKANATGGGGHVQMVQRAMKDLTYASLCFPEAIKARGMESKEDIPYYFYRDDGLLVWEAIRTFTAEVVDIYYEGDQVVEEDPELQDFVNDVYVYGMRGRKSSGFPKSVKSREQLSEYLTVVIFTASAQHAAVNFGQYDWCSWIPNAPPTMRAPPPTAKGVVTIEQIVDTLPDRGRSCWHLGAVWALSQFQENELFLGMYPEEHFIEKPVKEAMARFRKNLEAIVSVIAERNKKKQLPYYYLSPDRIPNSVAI
The test can be described thus: 5-LOX enzyme activity, fluorescence method (5-HPETE, H2DCFDA). To be noted: read-out: 5-LO (IC50). It counts as biochemical. In short, it runs like this: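 Compound (0.5 nM to 10 uM) pre-incubated 5 min with enzyme; reaction started with ATP (100 uM final) and arachidonic acid (3 uM final). All steps at room temperature, fluorescence read-out.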

The subject of test [3] is Rat whole blood (RWB). The test can be described thus: LTB4 secretion assay in RWB (rat whole blood). Type of test: cell-based. To be noted: Rattus norvegicus. Here is the method: Rat blood was drawn from caudal vena cava from male Sprague Dawley rat (6-9 weeks old) in vacuette coated with sodium heparin (Greiner bio-one, Cat #455051). The blood was pooled and diluted with RPMI (WelGENE, Cat #LM 011-05) to 1:1. The diluted blood was aliquoted into 96 well plate (200 ul per well) and compounds were added in dose response to a desired concentration ranging from 2.5 nM to 50 uM. After 15 min of pre-incubation at 37° C., calcium ionophore (A23187) was added to the final concentration of 10 uM. After 10 min of further incubation at 37° C., the LTB4 production was stopped by diluting the reaction mixture with ice cold PBS (1:4 dilutions). Cells were removed by centrifugation at 1000×g, 4° C. for 10 min, and the supernatant was transferred and then the quantification of LTB4 was done with Leukotriene B4 EIA kit (Cayman, Cat #520111) as instructed.

Take `Nc1ccc2[nH]c(NCc3ccc(Oc4ccccc4)cc3)nc2c1` [Compound 80]: the EC50 in test [1] and in test [3] was < 10 µM throughout. The IC50 in test [2] is < 1 µM.
As for `Nc1ccc2[nH]c(NCc3ccc4ccccc4c3)nc2c1` [Compound 81], the EC50 in test [1] and in test [3] was < 10 µM in each case. Further, the IC50 in test [2] is < 1 µM.
Regarding `c1ccc(Oc2ccc(CNc3nc4cc(NC5COC5)ccc4[nH]3)cc2)cc1` [Compound 87], the EC50 in test [1] and in test [3] was < 10 µM each time. The IC50 in test [2] was < 1 µM.
Turning to `Nc1ccc2[nH]c(NCc3ccc(Oc4ccc(OC(F)(F)F)cc4)cc3)nc2c1` [Compound 88], the EC50 in test [1] and in test [3] was < 10 µM in each case. Besides, the IC50 in test [2] is < 1 µM.
With `Nc1ccc2[nH]c(NCc3ccc(Sc4ccc(Cl)cc4)cc3)nc2c1` [Compound 92], the EC50 in test [1] and in test [3] was < 10 µM throughout. The IC50 in test [2] is < 1 µM.
Turning to `CC(C)(C)Nc1ccc2nc(N)n(CCOc3ccc(OC(F)(F)F)cc3)c2c1` [Compound 93], the EC50 in test [1] is < 10 µM; in test [3], > 20 µM. Further, the IC50 in test [2] was < 1 µM.
For `Nc1ccc2[nH]c(NCc3ccc(Oc4ccc(F)cc4)cc3)nc2c1` [Compound 94], in that order: < 10 µM, < 10 µM and < 1 µM.
`c1ccc(Oc2ccc(CNc3nc4cc(NC5CCCC5)ccc4[nH]3)cc2)cc1` [Compound 97]: the EC50 in test [1] and in test [3] was < 10 µM throughout. The IC50 in test [2] was < 1 µM.
In the case of `Nc1ccc2[nH]c(NCc3cccc(Oc4ccc(Cl)cc4)c3)nc2c1` [Compound 101], the EC50 in test [1] and in test [3] was < 10 µM throughout. For the same compound, the IC50 in test [2] was < 1 µM.
Take `CNc1nc2ccc(N3CCC(Oc4ccc(OC(F)(F)F)cc4)C3)cc2[nH]1` (stereo not drawn) [Compound 104]: the EC50 in test [1] was < 10 µM; in test [3], > 20 µM. The IC50 in test [2] was < 1 µM.
Consider `CN(C)c1nc2ccc(N3CCC(Oc4ccc(OC(F)(F)F)cc4)C3)cc2[nH]1` (stereo not drawn) [Compound 105], for which the EC50 in test [1] is < 10 µM; in test [3], > 20 µM. Further, the IC50 in test [2] is < 1 µM.
For `Nc1ccc2nc(NCc3ccc(C(=O)c4ccccc4)cc3)[nH]c2c1` [Compound 106] the same measures were < 10 µM, < 10 µM and < 1 µM.
In the case of `Nc1ccc2[nH]c(NCc3ccc(N4CCC(c5ccc(OC(F)(F)F)cc5)CC4)cc3)nc2c1` [Compound 108], the EC50 in test [1] and in test [3] was > 20 µM each time. In addition, the IC50 in test [2] was < 1 µM.
In the case of `CC(Nc1nc2cc(N)ccc2[nH]1)c1ccc(Oc2ccc(Cl)cc2)cc1` (stereo not drawn) [Compound 110], the EC50 in test [1] and in test [3] was < 10 µM throughout. Besides, the IC50 in test [2] was < 1 µM.
Take `Nc1ccc2[nH]c(NCc3ccc(Oc4ccc(Cl)c(Cl)c4)cc3)nc2c1` [Compound 112]: the results for the EC50 in test [1] and in test [3] were < 10 µM and 10 to 20 µM, respectively. Also, the concentration for half-maximal inhibition (IC50) in test [2] is < 1 µM.
For `Nc1ccc2[nH]c(NCc3ccc(Oc4ccc(F)c(F)c4)cc3)nc2c1` [Compound 113] the same measures were < 10 µM, < 10 µM and < 1 µM.
In the case of `CN(C)c1nc2cc(NCc3ccc(Oc4ccc(Cl)cc4)cc3)ccc2[nH]1` [Compound 123], the EC50 in test [1] and in test [3] was < 10 µM throughout. The IC50 in test [2] is < 1 µM.
For `Clc1ccc(Oc2ccc(CNc3nc4cc(NC5COC5)ccc4[nH]3)cc2)cc1` [Compound 125], the EC50 in test [1] and in test [3] was < 10 µM in each case. Moreover, the IC50 in test [2] is < 1 µM.
Regarding `CN(C)c1nc2cc(NCc3ccc(Oc4ccc(OC(F)(F)F)cc4)cc3)ccc2[nH]1` [Compound 126], the EC50 was < 10 µM in test [1] and > 20 µM in test [3]. In addition, the IC50 in test [2] was < 1 µM.

Usually EC50 stands for the concentration needed to bring the measured effect to its halfway point. Lower therefore signals an effect from little substance. A word on the IC50: it is the concentration at which inhibition is half-maximal.
